For one data set, the target named is TrxR. Details: method as in PMID 27977313. The settings on record: read-out: Ki value toward the enzyme; cited from earlier work.
The subject of data set [1] is TrxR1. The settings on record: cited from earlier work.
Data set [2] has as its target T1, TrxR1 (Homo sapiens, UniProt Q16881).
T1 construct: For TrxR assay, lysate from SH-SY5Y cells and rat liver were used; endogenous in cells; host or cells: SH-SY5Y human neuroblastoma cells (10,000 x g supernatant of the homogenate)
T1 sequence (Q16881 151-649 limits assumed): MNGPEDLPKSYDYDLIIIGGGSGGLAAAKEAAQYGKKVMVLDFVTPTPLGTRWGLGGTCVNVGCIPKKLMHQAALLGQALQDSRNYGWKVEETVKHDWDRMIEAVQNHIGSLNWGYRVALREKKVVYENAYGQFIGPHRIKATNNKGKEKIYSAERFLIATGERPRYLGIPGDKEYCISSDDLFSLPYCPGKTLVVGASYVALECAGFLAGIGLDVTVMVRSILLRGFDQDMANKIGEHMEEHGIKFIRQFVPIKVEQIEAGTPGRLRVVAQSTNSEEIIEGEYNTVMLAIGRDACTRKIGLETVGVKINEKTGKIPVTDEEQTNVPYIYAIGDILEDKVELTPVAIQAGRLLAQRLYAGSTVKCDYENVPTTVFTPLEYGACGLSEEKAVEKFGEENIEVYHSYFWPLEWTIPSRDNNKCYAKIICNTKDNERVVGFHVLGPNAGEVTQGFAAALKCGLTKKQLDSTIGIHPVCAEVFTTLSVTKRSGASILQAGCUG
As to the kind of experiment: TrxR inhibition assay (DTNB), SH-SY5Y cell lysate. It counts as biochemical. The settings on record: for IC50: neuroblastoma (SHSY5Y) lysate, mean ± SEM (n = 3).
Method: (§3) For TrxR assay, lysate from SH-SY5Y cells and rat liver were used. SHSY5Y cells were washed twice with phosphate buffer solution (PBS) and harvested from the flask with a scraper. Cells were homogenised in ice-cold 50 mM potassium phosphate buffer (pH 7.4), containing 1 mM EDTA, with Ultra Turrax T25 (Ikawerk, Janke and Kunkel Inc., Staufen, Germany). The homogenates were centrifuged at 10,000 × g for 15 min at 4 °C. The protein concentrations of the supernatants were determined using a Bio-Rad protein assay kit (Bio-Rad Laboratories, USA). TrxR activity was assayed using 5,5-dithio-bis-(2-nitrobenzoic acid) (DTNB, Sigma-Aldrich, USA) as substrate[21]. The reactions were run on a 96-well plates, final volume of 100 µl in 50 mM potassium phosphate buffer (pH 7.0), containing 50 µg of the cell lysate proteins, 1-mM EDTA, 50 mM KCl, 0.2 mg/ml bovine serum albumin, 0.25 mM NADPH (Acros Organics, USA). Reaction mixture was incubated for 15 min at room temperature in plate shaker (PST-60HL-4, BioSan, Riga, Latvia); afterwards DTNB was added to the total concentration of 2.5 mM. Enzyme kinetics was monitored on a Tecan Infinite1000 microplate reader, by measuring the increase in absorbance at 412 nm for 20 min. The background TrxR-independent reduction of DTNB in the cell lysates, as determined in the presence of aurothiomalate (200 µM), was subtracted from each value[22]. Reaction mixture with rat liver lysate contained 35 µg of proteins, 1 mM EDTA, 50 mM KCl, 0.2 mg/ml bovine serum albumin, 0.25 mM NADPH, and 2.5 mM DTNB. Reactions with rat liver lysate were run in the same manner as cell lysates.

In data set [3] the target is T2, TrxR1 (Rattus norvegicus, UniProt O89049).
T2 sequence (O89049 1-499): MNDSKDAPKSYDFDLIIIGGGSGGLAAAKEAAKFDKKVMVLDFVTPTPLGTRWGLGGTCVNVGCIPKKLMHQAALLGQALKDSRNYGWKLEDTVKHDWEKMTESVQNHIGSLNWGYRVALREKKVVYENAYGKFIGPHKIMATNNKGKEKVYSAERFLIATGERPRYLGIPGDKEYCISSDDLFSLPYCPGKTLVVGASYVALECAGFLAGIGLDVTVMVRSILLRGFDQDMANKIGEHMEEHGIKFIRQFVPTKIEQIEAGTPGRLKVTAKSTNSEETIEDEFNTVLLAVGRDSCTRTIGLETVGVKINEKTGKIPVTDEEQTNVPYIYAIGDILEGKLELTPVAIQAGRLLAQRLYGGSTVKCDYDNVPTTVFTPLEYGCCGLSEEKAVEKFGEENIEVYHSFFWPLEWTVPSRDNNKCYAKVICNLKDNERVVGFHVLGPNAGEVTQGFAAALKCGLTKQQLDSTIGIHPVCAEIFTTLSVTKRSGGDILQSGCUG
As to the kind of experiment: TrxR inhibition assay (DTNB), rat liver (hepatocyte) lysate.
Method: as §3

For another data set, the system named is SHSY5Y cells. As to the kind of experiment: Cytotoxicity assay (MTT), SH-SY5Y. Type of data set: cell-based, human. The settings on record: 72 h, mean ± SEM (n = 3). As for the experimental part: (§1) Human neuroblastoma cells (SH-SY5Y) were grown in 1:1 mixture of Eagle's Minimum Essential Medium and F12 Medium (Sigma) supplemented with 10% foetal bovine serum (Sigma). Human keratinocytes (HaCaT) were grown in DMEM, supplemented with 10% foetal bovine serum, 2 mM L-glutamine, 5000 U/ml penicillin, and 5 mg/ml streptomycin. Human glioblastoma cell (U87-MG) were grown in Minimum Essential Media (MEM), containing 10% foetal bovine serum, 2 mM L-glutamine, 5,000 U/ml penicillin, and 5 mg/ml streptomycin. All cell lines were obtained from American Type Culture Collection (ATCC, Rockville, MD). All cell lines were grown at 37 °C in a humidified 5% CO2 atmosphere.
(§2) Cells grown in 25 cm^2 tissue flasks were trypsinized, seeded into flat-bottomed adherent 96-well cell culture plates in appropriate medium (SH-SY5Y 12,000 cells/well, U87-MG 4000 cells/well, HaCaT 2000 cells/well) and incubated overnight; afterwards the cells were exposed to different concentrations of the tested compounds for 72 h. Cell viability was measured by MTT assay. Briefly, after incubation with the compounds, medium containing 0.2 mg/ml MTT was added. After incubation (3 h, 37 °C, 5% CO2), the MTT-containing medium was removed, and 200 µl of dimethyl sulfoxide (DMSO) was immediately added to each sample. The samples were assessed at 540 nm on LKB 5060–006 Microplate Reader (Vienna, Austria) microplate reader. The half-maximal inhibitory concentration (IC50) of each compound was calculated using Graph Pad Prism® 6.0 (GraphPad Software, Inc., USA).

The test system of a further data set is U87 cells. Briefly: Cytotoxicity assay (MTT), U87. It counts as cell-based, human. The settings on record: for CC50: U87 cells, 72 h, MTT, mean ± SEM (n = 3). As for the experimental part: as §1, §2
The subject of another data set is HaCaT cells. As to the kind of experiment: Cytotoxicity assay (MTT), HaCaT. It counts as cell-based, human. The settings on record: 72 h, mean ± SEM (n = 3). As for the experimental part: as §1, §2
A short description of data set [4]: Cytotoxicity assay (MTT), SH-SY5Y. It counts as cell-based, human. The settings on record: human, SH-SY5Y neuroblastoma cells, SHSY5Y cells, mean ± SEM (n = 3). As to the method: as §1, §2
The nature of data set [5]: Cytotoxicity assay (MTT), U87. It counts as cell-based, human. The settings on record: human, U87-MG glioblastoma cells; U87 cells; 72 h; MTT; mean ± SEM (n = 3). As for the experimental part:
as §1, §2

Data set [6] can be described thus: Cytotoxicity assay (MTT), HaCaT. Type of data set: cell-based, human. The settings on record: human, HaCaT keratinocytes, HaCaT cells, mean ± SEM (n = 3). As for the experimental part:
as §1, §2

For data set [7], the target named is T2, TrxR1.
Method: as §3
The mark [8] stands for this setting: TrxR IC50 Hepatocyte lysate, mean ± SEM (n = 3).
Setting [9] is: read-out: TrxR IC50 Hepatocyte lysate, mean ± SEM (n = 3).

Like-named read-outs stand apart in the source and are kept apart here.

For `CCC(C)SSc1ncc[nH]1` (stereo not shown) [Compound 2], at TrxR, the Ki was 31 µM.
On to `O=S(=O)(O)CCSSCCS(=O)(=O)O` [Compound 4, disodium 2,2′-dithio-bis-ethane sulphonate], for which, in the data set with TrxR1 [1] (TrxR substrate analogue, read-out: Km value), the Michaelis constant (Km) was 72 µM.
With `CN1C(=O)[C@@]23C[C@]4([C@]56C[C@@]78SS[C@@](CO)(C(=O)N7[C@H]5Nc5ccccc56)N(C)C8=O)c5ccccc5N[C@@H]4N2C(=O)[C@]1(CO)SS3` [Compound 5, chaetocin], the Km in the data set on TrxR1 [1] (TrxR1, substrate-competitive inhibition profile, read-out: Km values) is 4.6 µM.
Regarding `CN1C(=O)[C@]23CC4=CC=C[C@H](O)[C@H]4N2C(=O)[C@@]1(CO)SS3` [Compound 6, gliotoxin], the Km in the data set on TrxR1 [1] (read-out: Km values) is 16.9 µM.
Regarding `O=C(CSSCC(=O)N1CCCC1)N1CCCC1` [Compound 11a, 2,2′-Disulfanediylbis(1-(pyrrolidin-1-yl)ethan-1-one)], the values for the half-maximal inhibitory concentration (IC50) at TrxR1 [2] and on TrxR1 [3] (setting [8]) were over 200 µM and 170 ± 54.2 µM, respectively.
Turning to `CCCNC(=O)CSSCC(=O)NCCC` [Compound 11b], the figures for the IC50 against TrxR1 [2] and on TrxR1 [3] (setting [9]) were over 200 µM and 26.5 ± 2.9 µM, respectively. The results for the CC50 with SHSY5Y cells, in the data set on U87 cells and in the data set with HaCaT cells were 220 ± 15.3 µM, 54.6 ± 3.4 µM and 58.4 ± 5 µM, respectively. Besides, in the data set with U87 cells (U87, versus 11d, 11g, 12a), the “times more active against U87 cell line compared to the other three compounds” value is on record as 2–3 times.
Regarding `O=C(CSSCC(=O)N1CCOCC1)N1CCOCC1` [Compound 11c], the figures for the concentration for half-maximal inhibition (IC50) at TrxR1 [2] and on TrxR1 [3] (setting [9]) were 190 ± 78.4 µM and 182 ± 32.2 µM, respectively.
With `O=C(CSSCC(=O)NC1CC1)NC1CC1` [Compound 11d], the IC50 on TrxR1 [2] came out at 63.6 ± 27.5 µM; at TrxR1 [3] (setting [9]), 34.7 ± 9.1 µM. Moreover, the CC50 was 202 ± 12 µM with SHSY5Y cells, 180 ± 12.6 µM in the data set with U87 cells and 69 ± 3.4 µM in the data set with HaCaT cells.
As to `COc1ccc(CNC(=O)CSSCC(=O)NCc2ccc(OC)cc2)cc1` [Compound 11e], the IC50 against TrxR1 [2] and on TrxR1 [3] (setting [9]) was over 200 µM each time.
As to `CN1CCN(C(=O)CSSCC(=O)N2CCN(C)CC2)CC1` [Compound 11f], the IC50 on TrxR1 [2] and on TrxR1 [3] (setting [9]) was over 200 µM throughout.
As for `CC(C)(C)NC(=O)CSSCC(=O)NC(C)(C)C` [Compound 11g], on TrxR1 [2], the “inhibitory activity against neuroblastoma (SHSY5Y) cell lysate (in words)” value (shortened to “inhibitory activity”) is recorded as “virtually no activity”. Also, the IC50 against TrxR1 [2] was over 200 µM; at TrxR1 [3] (setting [9]), 22.2 ± 3.1 µM. Moreover, the CC50 stood at 174 ± 18.3 µM with SHSY5Y cells, 125 ± 15.6 µM in the data set with U87 cells and 43 ± 2.9 µM with HaCaT cells.
On to `O=C(CSSCC(=O)Nc1ccc(F)cc1)Nc1ccc(F)cc1` [Compound 11h], for which the IC50 against TrxR1 [2] and at TrxR1 [3] (setting [9]) was over 200 µM each time.
Regarding `COc1ccc(NC(=O)CSSCC(=O)Nc2ccc(OC)cc2)cc1` [Compound 11i], the IC50 against TrxR1 [2] and at TrxR1 [3] (setting [9]) was over 200 µM in each case.
Turning to `NC(=O)CSSCC(N)=O` [Compound 11j], the “inhibitory activity” value against TrxR1 [2] is given as “virtually no activity”. In addition, the IC50 is over 200 µM against TrxR1 [2] and 90.4 ± 18.7 µM on TrxR1 [3] (setting [9]).
Consider `CCCNC(=O)CSSCC(=O)N1CCOCC1` [Compound 12a, 2-((2-Morpholino-2-oxoethyl)disulfanyl)-N-propylacetamide], for which the figures for the IC50 on TrxR1 [2] and against TrxR1 [3] (setting [8]) were 44.4 ± 15.1 µM and 45.6 ± 6.8 µM, respectively. Also, the values for the CC50 at 72 h in data set [4], in data set [5] and in data set [6] were 176 ± 13.4 µM, 187 ± 15.9 µM and 71.8 ± 6.9 µM, respectively.
For the compound `COC(=O)CSSCC(=O)Nc1ccc(F)cc1` [Compound 13a, Methyl 2-((2-((4-fluorophenyl)amino)-2-oxoethyl)disulfanyl)acetate], the IC50 on TrxR1 [2] is 186 ± 83.8 µM; against TrxR1 [3] (setting [8]) it was over 200 µM.
For the compound `O=C(O)CSSCC(=O)O` [Compound 14, 2,2′-disulfanediyldiacetic acid, reference compound], on TrxR1 [2], the “inhibitory activity” value was “virtually no activity”. Further, the IC50 at TrxR1 [2] and at TrxR1 [3] (setting [8]) was over 200 µM in each case.
`O=C([O-])CSSCC(=O)[O-].[Na+].[Na+]` [Compound 15, 2,2′-disulfanediyldiacetic acid disodium salt, reference compound]: on TrxR1 [2], the “inhibitory activity” value was “completely devoid of inhibitory activity” and the IC50 is over 200 µM. Besides, the “activity against liver cell lysate (in words)” value on TrxR1 [7] is given as “completely devoid of inhibitory activity”.
Take `COC(=O)CSSCC(=O)OC` [Compound 17, Dimethyl 2,2′-disulfanediyldiacetate]: at TrxR1 [2], the “inhibitory activity” value is “virtually no activity” and the IC50 is over 200 µM. For the same compound, the IC50 at TrxR1 [3] (setting [8]) is over 200 µM.

Broadly, the Ki is the equilibrium dissociation constant of an inhibitor or competing ligand from its target. For orientation: Km means the substrate concentration at which the rate is half of its maximum. In general, IC50 refers to the midpoint of a concentration-inhibition curve. The CC50 is the concentration at which the toxic effect on the cells reaches its halfway point. Read a low CC50 as harm at low concentration.

These data come from PMC6374954, “Design, synthesis, and biological evaluation of novel derivatives of dithiodiglycolic acid prepared via oxidative coupling of thiols” (Journal of Enzyme Inhibition and Medicinal Chemistry, 2019).
